Patent publication US9345241B2, “Composition having biocide activity for aqueous preparations” (Omya International AG, priority 2008, dated 2016)

Columns and labels:
Pseudomonas putida = test: Biocidal activity of EDDM biocide in calcium carbonate slurries, plate count; format: cell-based
Protocol: (§1) All quoted bacterial counts (values are in cfu/ml) in the Tables herebelow are determined after 5 days following plate-out and in accordance with counting method described in “Bestimmung von aeroben mesophilen Keimen”, Schweizerisches Lebensmittelbuch, chapter 56, section 7.01, edition of 1985, revised version of 1988.
(§2) (Ethylenedioxy)dimethanol (EDDM), an aldehyde-releasing biocide, was introduced into 50 g samples of each of calcium carbonate slurry 1 and calcium carbonate slurry 2 in an amount corresponding to 1500 ppm of aldehyde-releasing EDDM biocide based on the weight of the weight of water in the slurry. In parallel, control samples of calcium carbonate slurry 1 and calcium carbonate slurry 2 were prepared in absence of EDDM.
(§3) Half of the samples of calcium carbonate slurry 1 and calcium carbonate slurry 2 were then inoculated with 1 mL of Methylobacterium extorquens, while the remaining samples where inoculated with 1 mL of Pseudomonas putida. Each of the samples was incubated at 30° C. for 72 hours. Thereafter, a 1:10 dilution in phosphate buffered saline (PBS) was plated on plate count agar (PCA). These plates were incubated at 30° C. and analysed after 5 days.

[1] = system: Methylobacterium extorquens; test: as above; format: cell-based
Protocol: as §1, §2, §3

[2] = EDDM 1500 ppm in combination with lithium
[3] = EDDM alone at 1500 ppm, no lithium

## OCOCCOCO [EDDM, (Ethylenedioxy)dimethanol]
Pseudomonas putida; [2]
  bacterial count of the suspension: below 10^4 cfu/ml
Pseudomonas putida; [3]
  resistance of the strain to the biocide implemented alone: show resistance
[1]; [2]
  bacterial count of the suspension: below 10^4 cfu/ml
[1]; [3]
  resistance of the strain to the biocide implemented alone: show resistance
